Results taken from patent US20240262814A1, “MODULATORS OF TREX1” (Constellation Pharmaceuticals, Inc., priority 2021, published 2024).

Biological target: T1, human TREX1 (Homo sapiens, UniProt Q9NSU2)
T1 construct: N-terminally His-Tev tagged full length human TREX1; made in house; host or cells: E. coli
T1 sequence (Q9NSU2 1-314): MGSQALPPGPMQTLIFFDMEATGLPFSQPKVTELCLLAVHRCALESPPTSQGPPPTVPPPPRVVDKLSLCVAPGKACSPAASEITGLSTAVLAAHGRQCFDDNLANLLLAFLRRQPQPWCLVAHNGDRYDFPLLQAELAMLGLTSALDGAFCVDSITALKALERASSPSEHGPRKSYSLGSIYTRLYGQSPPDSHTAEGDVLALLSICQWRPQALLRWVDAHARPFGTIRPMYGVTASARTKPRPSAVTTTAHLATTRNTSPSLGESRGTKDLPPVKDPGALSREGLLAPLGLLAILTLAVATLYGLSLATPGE
Assay: TREX1 kinetics assays (TR-FRET association and dissociation with biotinylated probe)
Assay type: binding
Conditions: for koff / kon: hTREX1, 25° C., global fit Kintek Explorer; for Kd / residence time: hTREX1, kinetic data
Experimental: Compound binding kinetics were assessed using a pair of TR-FRET assays which measure the proportion of protein bound to a biotinylated TREX1 inhibitor (“probe”).
N-terminally His-Tev tagged full length human TREX1 (expressed in E. coli and purified in house), complexed with Eu-W 1024-anti-6×His (“Eu”; PerkinElmer) in reaction buffer (50 mM Tris, 150 mM NaCl, 2 mM DTT, 0.1 mg/mL BSA, 0.01% (w/v) Tween-20, 5 mM MgCl2, pH 7.4) was combined with an equal volume of test compound in reaction buffer and incubated at 25° C. Concentrations at this stage were 1 nM TREX1/Eu complex, and four concentrations of compound (diluted from 10 mM stocks in 100% DMSO). At defined time points, 18 μL of this mixture was withdrawn and combined with 2 p L probe to a final concentration of 1 μM probe. After incubating for 30 seconds, 18 μL was withdrawn and combined with 2 μL streptavidin-allophycocyanin (“SA-APC”; PerkinElmer) to a final concentration of 1.5 μM SA-APC. Fifteen μL of this mixture was then immediately transferred to a 384-well Black ProxiPlate Plus (PerkinElmer) and read in an EnVision plate reader (PerkinElmer) measuring fluorescence at 615 nm and 665 nm following excitation w/337 nm laser light. Final concentrations were 0.8 nM TREX1/Eu complex, 0.9 μM probe, and 1.5 μM SA-APC.
N-terminally His-Tev tagged full length human TREX1 (expressed in E. coli and purified in house), complexed with Eu-W1024-anti-6×His (“Eu”; PerkinElmer) in reaction buffer (50 mM Tris, 150 mM NaCl, 2 mM DTT, 0.1 mg/mL BSA, 0.01% (w/v) Tween-20, 5 mM MgCl2, pH 7.4) was combined with an equal volume of test compound in reaction buffer. Concentrations at this stage were 100 nM TREX1/Eu complex and 100 nM test compound (diluted from 10 mM stocks in 100% DMSO). Following an equilibration period of at least an hour at 25° C., this mixture was diluted 100-fold into reaction buffer containing 1 μM probe, and incubated at 25° C. At defined time points, 36 μL of the reaction mixture was withdrawn and combined with 4 μL streptavidin-allophycocyanin (“SA-APC”; PerkinElmer) to a final concentration of 1.5 μM SA-APC. Fifteen μL of this mixture was then immediately transferred to duplicate wells of a 384-well Black ProxiPlate Plus (PerkinElmer) and read in an EnVision plate reader (PerkinElmer) measuring fluorescence at 615 nm and 665 nm following excitation w/ 337 nm laser light.
The TR-FRET signal, a ratio of 665 nm/615 nm emitted light, was converted to fraction enzyme bound to test compound by normalizing to low signal (no enzyme or test compound) and high signal (no test compound) controls. Data from both association and dissociation experiments were fitted globally using Kintek Explorer software, which computes the rate constants directly.

CC(c1nc(C(=O)Nc2cnoc2)c(O)c(=O)n1C)C(c1ccccc1)c1cc(Cl)ccc1C#N (single isomer, unassigned) [Example 8 Isomer 2]
koff: 4.17e-05 s⁻¹
kon: 116000 M⁻¹ s⁻¹
Kd: 0.361 nM
residence time: 400 min

CC(c1nc(C(=O)Nc2cnoc2)c(O)c(=O)n1C)C(c1ccccc1)c1ccc(Cl)cc1C#N (single isomer, unassigned) [Example 9 Isomer 4]
koff: 2.07e-05 s⁻¹
kon: 178000 M⁻¹ s⁻¹
Kd: 0.116 nM
residence time: 806 min

C[C@H](c1nc(C(=O)Nc2cnoc2)c(O)c(=O)n1C)[C@H](c1ccccc1)c1ccccc1Cl (single isomer, unassigned) [Example 2 Isomer 3, 2-(1-(2-chlorophenyl)-1-phenylpropan-2-yl)-5-hydroxy-N-(isoxazol-4-yl)-1-methyl-6-oxo-1,6-dihydropyrimidine-4-carboxamide]
koff: 5.48e-05 s⁻¹
kon: 159000 M⁻¹ s⁻¹
Kd: 0.345 nM
residence time: 304 min

CC(c1nc(C(=O)Nc2cnoc2)c(O)c(=O)n1C)C(c1ccccc1)c1ccccc1 (single isomer, unassigned) [Example 1 Isomer 2, 2-(1,1-diphenylpropan-2-yl)-5-hydroxy-N-(isoxazol-4-yl)-1-methyl-6-oxo-1,6-dihydro pyrimidine-4-carboxamide]
koff: 0.000192 s⁻¹
kon: 50300 M⁻¹ s⁻¹
Kd: 3.8 nM
residence time: 87 min

CC(c1nc(C(=O)Nc2cnoc2)c(O)c(=O)n1C)C(c1ccccc1)c1ccccc1C#N (single isomer, unassigned) [Example 3 Isomer 4]
koff: 3.6e-05 s⁻¹
kon: 164000 M⁻¹ s⁻¹
Kd: 0.219 nM
residence time: 463 min

CC(c1nc(C(=O)Nc2cnoc2)c(O)c(=O)n1C)C(c1ccccc1C#N)c1ccccc1C#N (single isomer, unassigned) [Example 4 Isomer 2]
koff: 3.83e-05 s⁻¹
kon: 907000 M⁻¹ s⁻¹
Kd: 0.042 nM
residence time: 435 min

CC(c1nc(C(=O)Nc2cnoc2)c(O)c(=O)n1C)C(c1ccccc1)c1cc(F)ccc1C#N (single isomer, unassigned) [Example 6 Isomer 4]
koff: 3.37e-05 s⁻¹
kon: 173000 M⁻¹ s⁻¹
Kd: 0.194 nM
residence time: 495 min

CC(c1nc(C(=O)Nc2cnoc2)c(O)c(=O)n1C)C(c1ccccc1Cl)c1ccccc1C#N (single isomer, unassigned) [Example 10 Isomer 1]
koff: 3.15e-05 s⁻¹
kon: 448000 M⁻¹ s⁻¹
Kd: 0.07 nM
residence time: 529 min

C[C@H](c1nc(C(=O)Nc2cnoc2)c(O)c(=O)n1C)C(c1ccccc1Cl)c1ccccc1Cl (single isomer, unassigned) [Example 15 Isomer 1, 2-(1,1-bis(2-chlorophenyl)propan-2-yl)-5-hydroxy-N-(isooxazol-4-yl)-1-methyl-6-oxo-1,6-dihydropyrimidine-4-carboxamide]
koff: 4.77e-05 s⁻¹
kon: 260000 M⁻¹ s⁻¹
Kd: 0.183 nM
residence time: 350 min

CC(c1nc(C(=O)Nc2cnoc2)c(O)c(=O)n1C)C(c1cc(F)cc(F)c1)c1ccccc1C#N (single isomer, unassigned) [Example 11 Isomer 3]
koff: 1.92e-05 s⁻¹
kon: 257000 M⁻¹ s⁻¹
Kd: 0.075 nM
residence time: 870 min
